Assays:
Assay type in all cases: cell-based, human
[1] = system: hPITO37; assay: Spectral flow cytometry (SSTR2, SSTR5, ACTH, zombie); details: Mife 2.85 nM
Procedure: (§1) The multicolor flow cytometry panel was designed using the Cytek®Full Spectrum Viewer online tool to calculate the similarity index. The organoids were harvested in cold SFDM media and centrifuged at 400×g for 5 minutes. Supernatant was discarded and organoids were dissociated to single cells using Accutase® (Thermo Fisher Scientific 00-4555-56). The enzymatic reaction was stopped using prewarmed DPBS and cells were then centrifuged at 400×g for 5 minutes and incubated with fluorochrome-conjugated/unconjugated primary surface or cytoplasmic antibodies at 4° C. for 30 minutes. Cells were then washed with Cell Staining Buffer (BioLegend #420-201) and incubated with secondary antibodies at 4° C. for 30 minutes. Cells were fixed using Cytofix/Cytoperm™ Fixation/Permeabilization Solution (BD Biosciences #554714) at 4° C. for 20 minutes, followed by washing with Fixation/Permeabilization wash buffer. Cells were then labeled with fluorochrome-conjugated/unconjugated intracellular primary antibodies at 4° C. for 30 minutes, washed and incubated with secondary antibodies at 4° C. for 30 minutes. Cells resuspended in cell staining buffer and fluorescence measured using the Cytek Aurora 5 Laser Spectral Flow Cytometer. An unstained cell sample was fixed and used as reference control. UltraComp eBeads™, Compensation Beads (Thermo Fisher Scientific #01-2222-42) were stained with the individual antibodies and used as single stain control for compensation and gating. Data was acquired using the Cytek™ Aurora and analyzed using Cytobank software (Beckman Coulter, Indianapolis, IN).

[2] = system: iPSC^USP48MV organoids; assay: as above; details: Rela 500 nM, Mife 500 nM
Procedure: as §1

[3] = system: SSTR2; assay: Differential expression of SSTR2 in iPSC generated pituitary tumor organoids
[4] = system: hPITOs generated from CD patients; assay: High-throughput drug screen, MTS assay; details: 1 uM, 72 hrs
Procedure: Patient adenoma-derived pituitary organoids were grown in 96-well plates and treated with 147 small molecules taken from the NCI AOD9 compound library for 72 hrs. (https://dtp.cancer.gov/organization/dscb/obtaining/available_plates.html). Drugs were diluted from 10 mM DMSO stock plates into 100 uM DMSO working stocks with a final concentration of 1 uM. All vehicle controls were treated with 0.1% DMSO. Organoid proliferation was measured using CellTiter 96® AQueous One Solution Cell Proliferation Assay kit (MTS, Promega, G3582) according to the manufacturer's instruction. Organoid death was calculated based on the absorbance readings at 490 nm, collected from the MTS assay relative to the vehicle controls. Drug screens were performed with biological replicates in same screen. Drugs were selected based on their ability to target key signaling pathways and clinical relevance to the treatment. Drug sensitivity is represented by cell viability and is significant at <0.5 suppressive effect of the drugs. The percent cell viability relative to the vehicle control was calculated. Correlation coefficient across each organoid were calculated using Pearson method to assess confidence in replication. Variance Component was detected for each drug across all organoids. A random effect model was run with a single random factor for each drug and estimated variance was calculated by rejecting the null hypothesis that there isn't variation among samples. The drug responses were grouped by variance factor large (vc>100), median (100>vc>50), and small (vc<50). Heatmap was used to display the differential responses in cell viability for the drugs.
Tumor recurrence can occur in as many as 30-50% of CD patients after successful surgical treatment. Unfortunately, bilateral adrenalectomy is the chosen surgical treatment for patients with persistent CD [35]. Bilateral adrenalectomy leads to the increased risk for development of Nelson's syndrome (progressive hyperpigmentation due to ACTH secretion and expansion of the residual pituitary tumor). Although the risk of developing Nelson's syndrome following adrenalectomy can be reduced by 50% with stereotactic radiotherapy, there is a need to develop medical therapies that directly target the pituitary adenoma. Thus, we established a high-throughput drug screening assay using patient-derived pituitary organoids. […] The replicates behaved consistently with the drug response with the correlation scores of >0.8 for these samples (FIG. 3a). We estimated the variance component for each drug across all organoids. […] The drug responses were grouped by variance factor large, median, and small. The larger the variance the more variable is the drug response across the organoids. […]

[5] = system: iPSC^ctrl organoids; assay: ACTH secretion ELISA of conditioned media; details: 500 nM
Procedure: (§2) Concentration of secreted ACTH in conditioned media that was collected from organoid cultures was measured using the Human ACTH ELISA Kit (Novus Biologicals, NBP2-66401) according to the manufacturer's protocol. The enzyme-substrate reaction was measured spectrophotometrically (BioTek Gen5 Micro Plate Reader Version 3.11) at a wavelength of 450 nm and the ACTH concentration (pg/mL) was interpolated using a standard curve with a 4-parameter logistic regression analysis using GraphPad Prism (Version 9.2.0).

[6] = system: iPSC^USP48MV organoids; assay: ACTH secretion ELISA of conditioned media; details: 500 nM
Procedure: as §2

[7] = system: SSTR5; assay: Differential expression of SSTR5 in iPSC generated pituitary tumor organoids
[8] = system: FKBP5; assay: GR modulation: GR target gene FKBP5 expression in PitNET organoids
[9] = iPSC organoids (ctrl, USP48MI, USP48MV, USP8), 500 nM, vs vehicle
[10] = iPSC^ctrl organoids, drug alone (Mife 500 nM, GANT 5 uM, Keto 10 uM, Dexa 100 nM)

CC#C[C@]1(O)CC[C@H]2[C@@H]3CCC4=CC(=O)CCC4=C3[C@@H](c3ccc(N(C)C)cc3)C[C@@]21C [Mifepristone]
number of ACTH expressing cells [1]: significantly increased
cell death (Zombie positive cells) ([1]; Pas 837.5 nM, Rela 382 nM): not observed
percentage of SSTR2 positive cells ([1]; Rela 382 nM, vs Veh): significant increase
percentage of SSTR5 positive cells ([1]; Rela 382 nM, vs Veh): significant increase
ACTH positive cells ([2]; Pas 100 nM): significant induction
cell death (Zombie positive cells) ([2]; Pas 100 nM): not observed
percentage of SSTR2 positive cells ([2]; vs Veh): significant increase
percentage of SSTR5 positive cells ([2]; vs Veh): significant increase
expression of SSTR2 [3, 9]: significant induction
differential expression of SSTR2 [3, 10]: significantly induced
response of the adenoma cells within the organoids ([4]; hPITO7, 10 and 25): ~0%
response of the adenoma cells within the organoids ([4]; hPITO34 and hPITO35): 50%
magnitude of ACTH secretion induced [5]: significantly greater than the effect of relacorilant
magnitude of ACTH secretion induced [6]: significantly greater than the effect of relacorilant
expression of SSTR5 [7, 9]: significant induction
differential expression of SSTR5 [7, 10]: significantly induced
differential expression of FKBP5 [8]: significantly reduced
